Source: US11999745B2, “Pharmaceutical compounds” (Heptares Therapeutics Limited, priority 2020, dated 2024)

What was measured:
Assay type in all cases: cell-based
[1] = molecular target: T1, human muscarinic M3 receptor (Homo sapiens, UniProt P20309); assay: Alphascreen Surefire phospho-ERK1/2 functional assay, M3; details: for Emax: CHO cells stably expressing human M3, read-out: % Emax cf. ACh, M3
T1 construct: expressed in transfected cells
Procedure: (§1) ERK1/2 phosphorylation is a downstream consequence of both Gq/11 and Gi/o protein coupled receptor activation, making it highly suitable for the assessment of M1, M3 (Gq/11 coupled) and M2, M4 receptors (Gi/o coupled), rather than using different assay formats for different receptor subtypes. CHO cells stably expressing the human muscarinic M1, M2, M3 or M4 receptor were plated (25K/well) onto 96-well tissue culture plates in MEM-alpha+10% dialysed FBS. Once adhered, cells were serum-starved overnight. Agonist stimulation was performed by the addition of 5 μL agonist to the cells for 5 min (37° C.). Media was removed and 50 μL of lysis buffer added.

[2] = molecular target: T2, human muscarinic M4 receptor (Homo sapiens, UniProt P08173); assay: Alphascreen Surefire phospho-ERK1/2 functional assay, M4; details: for Emax: CHO cells stably expressing human M4, read-out: % Emax cf. ACh, M4
T2 construct: expressed in transfected cells
T2 sequence (P08173 1-479): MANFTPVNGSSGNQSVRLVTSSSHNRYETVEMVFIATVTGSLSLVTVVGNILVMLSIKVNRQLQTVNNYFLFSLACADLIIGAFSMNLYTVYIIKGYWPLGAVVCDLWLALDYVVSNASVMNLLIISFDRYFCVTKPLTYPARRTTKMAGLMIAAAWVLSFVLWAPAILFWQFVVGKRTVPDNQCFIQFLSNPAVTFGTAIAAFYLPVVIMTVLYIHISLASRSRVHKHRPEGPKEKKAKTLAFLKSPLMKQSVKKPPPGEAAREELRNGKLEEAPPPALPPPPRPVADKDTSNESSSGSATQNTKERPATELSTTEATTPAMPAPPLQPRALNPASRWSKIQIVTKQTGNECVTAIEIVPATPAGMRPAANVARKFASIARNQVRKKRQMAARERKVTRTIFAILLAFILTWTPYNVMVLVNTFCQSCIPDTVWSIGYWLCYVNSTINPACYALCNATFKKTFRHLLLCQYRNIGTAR
Procedure: as §1

[3] = molecular target: T3, human muscarinic M1 receptor (Homo sapiens, UniProt P11229); assay: Alphascreen Surefire phospho-ERK1/2 functional assay, M1; details: CHO cells stably expressing human M1, phospho-ERK1/2
T3 construct: expressed in transfected cells
T3 sequence (P11229 1-460): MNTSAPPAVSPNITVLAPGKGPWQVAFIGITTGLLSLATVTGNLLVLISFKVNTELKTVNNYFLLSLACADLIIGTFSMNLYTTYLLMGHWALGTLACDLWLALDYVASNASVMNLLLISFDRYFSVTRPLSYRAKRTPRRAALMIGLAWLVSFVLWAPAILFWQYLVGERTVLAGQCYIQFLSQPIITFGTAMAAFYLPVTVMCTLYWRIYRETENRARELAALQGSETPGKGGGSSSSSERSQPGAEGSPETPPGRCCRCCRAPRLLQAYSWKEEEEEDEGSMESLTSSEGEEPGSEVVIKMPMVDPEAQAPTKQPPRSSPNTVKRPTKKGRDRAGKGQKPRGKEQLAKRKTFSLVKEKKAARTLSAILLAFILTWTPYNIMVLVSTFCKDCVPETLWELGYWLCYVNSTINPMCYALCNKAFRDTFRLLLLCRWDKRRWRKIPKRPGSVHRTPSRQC
Procedure: as §1

[4] = molecular target: T4, human muscarinic M2 receptor (Homo sapiens, UniProt P08172); assay: Alphascreen Surefire phospho-ERK1/2 functional assay, M2
T4 construct: expressed in transfected cells
T4 sequence (P08172 1-466): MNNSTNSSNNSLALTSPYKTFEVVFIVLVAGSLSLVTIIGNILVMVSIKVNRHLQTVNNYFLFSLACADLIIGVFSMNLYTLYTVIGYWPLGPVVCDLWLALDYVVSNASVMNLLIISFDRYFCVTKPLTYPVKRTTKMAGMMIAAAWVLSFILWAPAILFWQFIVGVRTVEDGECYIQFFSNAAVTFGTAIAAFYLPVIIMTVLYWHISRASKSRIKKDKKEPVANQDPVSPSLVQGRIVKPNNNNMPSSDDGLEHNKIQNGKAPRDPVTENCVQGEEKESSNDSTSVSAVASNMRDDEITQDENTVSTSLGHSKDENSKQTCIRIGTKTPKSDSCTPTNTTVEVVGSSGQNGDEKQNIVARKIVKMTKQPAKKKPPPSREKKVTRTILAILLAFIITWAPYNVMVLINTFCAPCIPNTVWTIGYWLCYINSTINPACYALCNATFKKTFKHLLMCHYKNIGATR
Procedure: as §1

T1 sequence (P20309 whole entry): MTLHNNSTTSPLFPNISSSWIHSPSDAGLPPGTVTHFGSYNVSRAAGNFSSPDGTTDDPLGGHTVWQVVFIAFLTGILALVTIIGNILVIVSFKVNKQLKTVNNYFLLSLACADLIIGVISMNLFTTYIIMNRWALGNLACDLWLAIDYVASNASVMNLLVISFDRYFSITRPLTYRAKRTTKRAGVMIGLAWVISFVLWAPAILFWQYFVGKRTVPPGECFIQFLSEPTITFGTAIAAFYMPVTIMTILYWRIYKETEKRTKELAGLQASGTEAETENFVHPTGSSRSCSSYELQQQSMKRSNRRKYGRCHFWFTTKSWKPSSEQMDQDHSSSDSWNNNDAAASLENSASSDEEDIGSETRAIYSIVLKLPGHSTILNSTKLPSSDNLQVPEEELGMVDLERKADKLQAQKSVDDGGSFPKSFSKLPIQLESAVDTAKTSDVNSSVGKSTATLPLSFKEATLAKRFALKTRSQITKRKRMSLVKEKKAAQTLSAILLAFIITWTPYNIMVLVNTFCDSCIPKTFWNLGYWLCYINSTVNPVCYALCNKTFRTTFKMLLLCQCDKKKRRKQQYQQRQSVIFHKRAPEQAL

SMILES	Emax [1]	Emax [2]	pEC50 M1 [3]	Emax ([3]; read-out: % Emax cf. ACh, M1)	Emax ([4]; CHO cells stably expressing human M2, read-out: % Emax cf. ACh, M2)	EC50 ([4]; CHO cells stably expressing human M2, read-out: pEC50 M2 (converted))	EC50 ([1]; CHO cells stably expressing human M3, read-out: pEC50 M3 (converted))	EC50 ([2]; CHO cells stably expressing human M4, read-out: pEC50 M4 (converted))
CC(=O)OCC[N+](C)(C)C [Acetylcholine, reference compound]	102%	108%						
CC(C)(C)NC(=O)C1CCN([C@H]2C[C@H]3CC[C@@H](C2)N3c2nc(C(F)(F)F)no2)CC1.Cl [Example 1-1, N-(tert-butyl)-1-((1R,3r,5S)-8-(3-(trifluoromethyl)-1,2,4-oxadiazol-5-yl)-8-azabicyclo[3.2.1]octan-3-yl)piperidine-4-carboxamide hydrochloride]	3%	32%	7.17	92%	7%	> 20 µM	> 20 µM	0.12 µM
